From ChEMBL document CHEMBL1147581, “Development of novel lipid-peptide hybrid compounds with antibacterial activity from natural cationic antibacterial peptides” (Bioorg Med Chem Lett, 2004) come the findings set out here.

Each structure is given as a SMILES string. ≈ marks a conversion by molar mass, not a printed value. Calls of active or inactive are those of the source. The calls are words filed in the database; no cut-off is given here. Non-standard residues stand in square brackets, D forms with d. Residues, ends and D or L forms follow the SMILES beside them. *: point of attachment. Palmitoleoyl = CCCCCC/C=C\CCCCCCCC(=O)*; PhAc = O=C(Cc1ccccc1)*; Bz = O=C(c1ccccc1)*; Ahx = NCCCCCC(=O)O Some results are limits rather than exact numbers.

The subject of data set [1] is Candida albicans. Nature of the data set: Minimum inhibitory concentration against Candida albicans ATCC 36232. In kind it is functional.
For data set [2], the system named is Escherichia coli. Nature of the data set: Minimum inhibitory concentration against Escherichia coli ATCC 25922. In kind it is functional.
Data set [3] can be described thus: Minimum inhibitory concentration against Micrococcus luteus ATCC 9341. In kind it is functional.
For data set [4], the species on record is Mus musculus. Nature of the data set: Concentration required for half-maximal lysis of mouse erythrocytes. In kind it is functional.
Data set [5] has as its system Pseudomonas aeruginosa. Nature of the data set: Minimum inhibitory concentration against Pseudomonas aeruginosa ATCC 9027. In kind it is functional.
Data set [6] deals with Staphylococcus aureus. Nature of the data set: Minimum inhibitory concentration against Staphylococcus aureus ATCC 6538. It counts as functional.
Data set [7] has as its system Candida albicans. Nature of the data set: Minimum inhibitory concentration against Candida albicans ATCC 36232; NA = not active. In kind it is functional, organism-based.
For data set [8], the system named is Escherichia coli. Nature of the data set: Minimum inhibitory concentration against Escherichia coli ATCC 25922; NA = not active. In kind it is functional, organism-based.
Data set [9] has as its system Pseudomonas aeruginosa. Nature of the data set: Minimum inhibitory concentration against Pseudomonas aeruginosa ATCC 9027; NA = not active. It counts as functional, organism-based.
Data set [10] in a line: Stability of the peptide in the presence of mouse serum. In kind it is ADME, organism-based.

Take `CC(C)[C@H](NC(=O)[C@H](CS)NC(=O)[C@@H](NC(=O)[C@H](CCCN=C(N)N)NC(=O)[C@H](CCCCN)NC(=O)CNC(=O)[C@H](CC(N)=O)NC(=O)[C@H](CS)NC(=O)[C@H](Cc1ccc(O)cc1)NC(=O)[C@@H](N)CCCCN)C(C)C)C(=O)N[C@@H](CS)C(=O)N[C@@H](CCCN=C(N)N)C(N)=O` (H-KYCNGKRVCVCR-NH2): the MIC in data set [1] amounted to 25 mg/L (≈ 17.5 µM); in [2], 50 mg/L (≈ 35 µM); in data set [3], 6.3 mg/L (≈ 4.41 µM); in data set [5] it was 50 mg/L (≈ 35 µM); in data set [6], 12.5 mg/L (≈ 8.75 µM). Moreover, the HD50 in data set [4] is more than 100 µg/mL.

As for `CC(C)[C@H](NC(=O)[C@H](CS)NC(=O)[C@@H](NC(=O)[C@H](CCCN=C(N)N)NC(=O)[C@H](CCCCN)NC(=O)CNC(=O)[C@H](CC(N)=O)NC(=O)[C@H](CS)NC(=O)[C@H](Cc1ccc(O)cc1)NC(=O)[C@H](Cc1ccccc1)NC(=O)[C@@H](N)CCCCN)C(C)C)C(=O)N[C@@H](CS)C(=O)N[C@@H](CCCN=C(N)N)C(N)=O` (H-KFYCNGKRVCVCR-NH2), the minimal inhibitory concentration (MIC) in [1] came to 12.5 mg/L (≈ 7.94 µM); in [2] it was 25 mg/L (≈ 15.9 µM); in [3] it was 6.3 mg/L (≈ 4 µM); in data set [5] it was 50 mg/L (≈ 31.7 µM); in [6], 6.3 mg/L (≈ 4 µM). This compound also gave an HD50 in data set [4] of more than 100 µg/mL.

As to `CC(C)[C@H](NC(=O)[C@H](CS)NC(=O)[C@@H](NC(=O)[C@H](CCCN=C(N)N)NC(=O)[C@H](CCCCN)NC(=O)CNC(=O)[C@H](CC(N)=O)NC(=O)[C@H](CS)NC(=O)[C@H](Cc1ccc(O)cc1)NC(=O)CCCCCN)C(C)C)C(=O)N[C@@H](CS)C(=O)N[C@@H](CCCN=C(N)N)C(N)=O` (H-[Ahx]YCNGKRVCVCR-NH2), the MIC result in [7], in data set [8] and in [9] was “inactive” each time. The minimal inhibitory concentration (MIC) in [3] and in data set [6] was 50 mg/L (≈ 35.4 µM) in each case. Moreover, in data set [4], the HD50 was more than 100 µg/mL.

With `CC(=O)N[C@@H](Cc1ccc(O)cc1)C(=O)N[C@@H](CS)C(=O)N[C@@H](CC(N)=O)C(=O)NCC(=O)N[C@@H](CCCCN)C(=O)N[C@@H](CCCN=C(N)N)C(=O)N[C@H](C(=O)N[C@@H](CS)C(=O)N[C@H](C(=O)N[C@@H](CS)C(=O)N[C@@H](CCCN=C(N)N)C(N)=O)C(C)C)C(C)C` (Ac-YCNGKRVCVCR-NH2), the MIC entry in data set [7], in data set [8] and in [9] was “inactive” throughout. Besides, the minimal inhibitory concentration (MIC) in data set [3] came to 100 mg/L (≈ 74.5 µM); in [6], 50 mg/L (≈ 37.3 µM). In data set [4], the HD50 was more than 100 µg/mL.

As for `CC(=O)NCCCCCC(=O)N[C@@H](Cc1ccc(O)cc1)C(=O)N[C@@H](CS)C(=O)N[C@@H](CC(N)=O)C(=O)NCC(=O)N[C@@H](CCCCN)C(=O)N[C@@H](CCCN=C(N)N)C(=O)N[C@H](C(=O)N[C@@H](CS)C(=O)N[C@H](C(=O)N[C@@H](CS)C(=O)N[C@@H](CCCN=C(N)N)C(N)=O)C(C)C)C(C)C` (Ac-[Ahx]YCNGKRVCVCR-NH2), the MIC result in data set [7], in data set [8] and in data set [9] was “inactive” each time. The MIC in [3] and in data set [6] was more than 100 mg/L throughout. The same compound yielded an HD50 in data set [4] of more than 100 µg/mL.

With `CC(C)[C@H](NC(=O)[C@H](CS)NC(=O)[C@@H](NC(=O)[C@H](CCCN=C(N)N)NC(=O)[C@H](CCCCN)NC(=O)CNC(=O)[C@H](CC(N)=O)NC(=O)[C@H](CS)NC(=O)[C@H](Cc1ccc(O)cc1)NC(=O)[C@@H](N)Cc1ccccc1)C(C)C)C(=O)N[C@@H](CS)C(=O)N[C@@H](CCCN=C(N)N)C(N)=O` (H-FYCNGKRVCVCR-NH2), the minimal inhibitory concentration (MIC) in data set [1] turned out to be 25 mg/L (≈ 17.3 µM); in [2] it was 25 mg/L (≈ 17.3 µM); in [3], 12.5 mg/L (≈ 8.64 µM); in data set [5], 25 mg/L (≈ 17.3 µM); in data set [6], 25 mg/L (≈ 17.3 µM). The HD50 in data set [4] was more than 100 µg/mL.

In the case of `CC(C)[C@H](NC(=O)[C@H](CS)NC(=O)[C@@H](NC(=O)[C@H](CCCN=C(N)N)NC(=O)[C@H](CCCCN)NC(=O)CNC(=O)[C@H](CC(N)=O)NC(=O)[C@H](CS)NC(=O)[C@H](Cc1ccc(O)cc1)NC(=O)[C@H](CCCCN)NC(=O)[C@@H](N)CCCCN)C(C)C)C(=O)N[C@@H](CS)C(=O)N[C@@H](CCCN=C(N)N)C(N)=O` (H-KKYCNGKRVCVCR-NH2), the minimum inhibitory concentration (MIC) in [1] worked out at 12.5 mg/L (≈ 8.03 µM); in data set [2], 25 mg/L (≈ 16.1 µM); in [3] it was 6.3 mg/L (≈ 4.05 µM); in [5], 25 mg/L (≈ 16.1 µM); in data set [6] it was 6.3 mg/L (≈ 4.05 µM). Moreover, the HD50 in data set [4] was more than 100 µg/mL.

Compound `CC[C@H](C)[C@H](NC(=O)[C@H](Cc1ccc(O)cc1)NC(=O)[C@H](CCCCN)NC(=O)[C@H](CCCCN)NC(=O)c1ccccc1)C(=O)N[C@@H](CCCCN)C(=O)N[C@H](C(=O)N[C@@H](Cc1ccccc1)C(=O)N[C@H](C(=O)N[C@@H](Cc1ccccc1)C(=O)N[C@@H](CCCCN)C(N)=O)C(C)C)C(C)C` (Bz-KKYIKVFVFK-NH2) [listing 1 of 2 here] showed a minimum inhibitory concentration (MIC) in data set [6] of 50 mg/L (≈ 35.6 µM).

With `CC[C@H](C)[C@H](NC(=O)[C@H](Cc1ccc(O)cc1)NC(=O)[C@H](CCCCN)NC(=O)[C@H](CCCCN)NC(=O)CCCCCNC(C)=O)C(=O)N[C@@H](CCCCN)C(=O)N[C@H](C(=O)N[C@@H](Cc1ccccc1)C(=O)N[C@H](C(=O)N[C@@H](Cc1ccccc1)C(=O)N[C@@H](CCCCN)C(N)=O)C(C)C)C(C)C` (Ac-[Ahx]KKYIKVFVFK-NH2), the half-life in [10] is 45 min. This compound also came in with an MIC in data set [6] of 6.3 mg/L (≈ 4.33 µM).

On to `CC[C@H](C)[C@H](NC(=O)[C@H](Cc1ccc(O)cc1)NC(=O)[C@H](CCCCN)NC(=O)[C@H](CCCCN)NC(=O)c1ccccc1)C(=O)N[C@@H](CCCCN)C(=O)N[C@H](C(=O)N[C@@H](Cc1ccccc1)C(=O)N[C@H](C(=O)N[C@@H](Cc1ccccc1)C(=O)N[C@@H](CCCCN)C(N)=O)C(C)C)C(C)C` (Bz-KKYIKVFVFK-NH2) [listing 2 of 2 here], for which the half-life in data set [10] was found to be 30 min.

As for `CC(C)[C@H](NC(=O)[C@H](CS)NC(=O)[C@@H](NC(=O)[C@H](CCCN=C(N)N)NC(=O)[C@H](CCCCN)NC(=O)CNC(=O)[C@H](CC(N)=O)NC(=O)[C@H](CS)NC(=O)[C@H](Cc1ccc(O)cc1)NC(=O)Cc1ccccc1)C(C)C)C(=O)N[C@@H](CS)C(=O)N[C@@H](CCCN=C(N)N)C(N)=O` (PhAc-YCNGKRVCVCR-NH2), the MIC entry in data set [7], in [8] and in [9] was “inactive” throughout. Besides, the MIC in [3] was more than 100 mg/L; in data set [6], 100 mg/L (≈ 70.5 µM). For the same compound, the HD50 in [4] is more than 100 µg/mL.

With `CC(C)[C@H](NC(=O)[C@H](CS)NC(=O)[C@@H](NC(=O)[C@H](CCCN=C(N)N)NC(=O)[C@H](CCCCN)NC(=O)CNC(=O)[C@H](CC(N)=O)NC(=O)[C@H](CS)NC(=O)[C@@H](N)Cc1ccc(O)cc1)C(C)C)C(=O)N[C@@H](CS)C(=O)N[C@@H](CCCN=C(N)N)C(N)=O` (H-YCNGKRVCVCR-NH2), the minimum inhibitory concentration (MIC) was determined as 25 mg/L (≈ 19.2 µM) in data set [1]; 12.5 mg/L (≈ 9.62 µM) in data set [2]; 25 mg/L (≈ 19.2 µM) in [3]; 50 mg/L (≈ 38.5 µM) in data set [5]; 25 mg/L (≈ 19.2 µM) in [6]. For the same compound, the HD50 in data set [4] is more than 100 µg/mL.

`CCCCCC/C=C\CCCCCCCC(=O)N[C@@H](Cc1ccc(O)cc1)C(=O)N[C@@H](CS)C(=O)N[C@@H](CC(N)=O)C(=O)NCC(=O)N[C@@H](CCCCN)C(=O)N[C@@H](CCCN=C(N)N)C(=O)N[C@H](C(=O)N[C@@H](CS)C(=O)N[C@H](C(=O)N[C@@H](CS)C(=O)N[C@@H](CCCN=C(N)N)C(N)=O)C(C)C)C(C)C` (Palmitoleoyl-YCNGKRVCVCR-NH2): the MIC result in data set [7], in data set [8] and in data set [9] was “inactive” each time. Besides, the MIC in [3] and in data set [6] was more than 100 mg/L throughout. The compound further had an HD50 in data set [4] of more than 100 µg/mL.
